{"source": "patent US20090061027A1", "about": "“Composition For The Prevention and Treatment Of Common Cold Diseases” (priority 2006, published 2009)", "test_system": "A549 cells", "assay": "Examination of the apoptotic caspase activation (Western Blot, PARP cleaving)", "format": "cell-based", "conditions": "48 hours, extract 25 and 50 μg/ml, staurosporine as positive control stimulus", "description": "To examine the apoptotic caspase activation, A549 cells were treated with 25 and 50 μg/ml of the extract for 48 hours. The cells were then lysed, and the cellular proteins were separated using gel electrophoresis and examined in the Western Blot with an antiPARP antibody (Poly(ADP-Ribose) polymerase, caspase substrate) for the apoptotic cleaving of this protein by caspases. The apoptosis-inductor staurosporine served as the positive control stimulus. The experiments were conducted in two parallel batches."}
{"smiles": "CN[C@@H]1C[C@H]2O[C@@](C)([C@@H]1OC)n1c3ccccc3c3c4c(c5c6ccccc6n2c5c31)C(=O)NC4", "note": "[staurosporine]", "values": [{"measurement": "caspase activation / apoptotic cleaving of PARP", "result": "efficient cleaving of the caspase substrate"}]}
